Measurements as given in patent US20220187282A1, “CARDIOMYOCYTE PROLIFERATION” (The Council of the Queensland Institute of Medical Research, priority 2019, published 2022).

Assays:
Format in all cases: biochemical
kinases [1] = target: kinases (Homo sapiens, UniProt Q9UKI8); conditions: TLK1 FRET-Lantha SP; Test Conc(μM) 1
kinases [2] = target: kinases (Homo sapiens, UniProt P08581); conditions: MET (cMet) FRET-Z-Lyte SP; Test Conc(μM):ATP Conc(μM) 1:50
kinases [3] = target: kinases (Homo sapiens, UniProt Q8N4C8); conditions: MINK1 FRET-Z-Lyte SP; Test Conc(μM):ATP Conc(μM) 1:25
kinases [4] = target: kinases (Homo sapiens, UniProt O00311); conditions: CDC7/DBF4 FRET-Lantha SP; Test Conc(μM) 1
kinases [5] = target: kinases (Homo sapiens, UniProt Q9H2X6); conditions: HIPK2 FRET-Z-Lyte SP; Test Conc(μM):ATP Conc(μM) 1:10
kinases [6] = target: kinases (Homo sapiens, UniProt P54764); conditions: EPHA4 FRET-Z-Lyte SP; Test Conc(μM):ATP Conc(μM) 1:100
kinases [7] = target: kinases (Homo sapiens, UniProt Q9HCP0); conditions: CSNK1G1 (CK1gamma1) Z-Lyte SP; Test Conc(μM):ATP Conc(μM) 1:5
kinases [8] = target: kinases (Homo sapiens, UniProt Q5TCX8); conditions: MLK4 FRET-Lantha SP; Test Conc(μM) 1
kinases [9] = target: kinases (Homo sapiens, UniProt Q96PY6); conditions: NEK1 FRET-Z-Lyte SP; ATP Conc(μM):Test Conc(μM) 1:100
kinases [10] = target: kinases (Homo sapiens, UniProt Q96SB4); conditions: SRPK1 FRET-Z-Lyte SP; Test Conc(μM):ATP Conc(μM) 1:25
kinases [11] = target: kinases (Homo sapiens, UniProt P54760); conditions: EPHB4 FRET-Z-Lyte SP; Test Conc(μM):ATP Conc(μM) 1:100
kinases [12] = target: kinases (Homo sapiens, UniProt Q05513); conditions: PRKCZ (PKC zeta) Z-Lyte SP; Test Conc(μM):ATP Conc(μM) 1:5
kinases [13] = target: kinases (Homo sapiens, UniProt P49841); conditions: GSK3B FRET-Z-Lyte SP; Test Conc(μM):ATP Conc(μM) 1:10
kinases [14] = target: kinases (Homo sapiens, UniProt Q05397); conditions: PTK2 (FAK) FRET-Z-Lyte SP; Test Conc(μM):ATP Conc(μM) 1:50
kinases [15] = target: kinases (Homo sapiens, UniProt O96017); conditions: CHEK2 (CHK2) FRET-Z-Lyte SP; Test Conc(μM):ATP Conc(μM) 1:75
kinases [16] = target: kinases (Homo sapiens, UniProt O14757); conditions: CHEK1 (CHK1) FRET-Z-Lyte SP; Test Conc(μM):ATP Conc(μM) 1:50
kinases [17] = target: kinases (Homo sapiens, UniProt O75116); conditions: ROCK2 FRET-Z-Lyte SP; Test Conc(μM):ATP Conc(μM) 1:50
kinases [18] = target: kinases (Homo sapiens, UniProt O00141); conditions: SGK (SGK1) FRET-Z-Lyte SP; Test Conc(μM):ATP Conc(μM) 1:25
kinases [19] = target: kinases (Homo sapiens, UniProt Q9NY57); conditions: STK32B (YANK2) FRET-Lantha SP; Test Conc(μM) 1
kinases [20] = target: kinases (Homo sapiens, UniProt Q8IYT8); conditions: ULK2 FRET-Lantha SP; Test Conc(μM) 1
kinases [21] = target: kinases (Homo sapiens, UniProt Q15835); conditions: GRK1 FRET-Lantha SP; Test Conc(μM) 1
kinases [22] = target: kinases (Homo sapiens, UniProt Q9NRM7); conditions: LATS2 FRET-Lantha SP; Test Conc(μM) 1
kinases [23] = target: kinases (Homo sapiens, UniProt Q8WTQ7); conditions: GRK7 FRET-Z-Lyte SP; Test Conc(μM):ATP Conc(μM) 1:10
kinases [24] = target: kinases (Homo sapiens, UniProt Q96L34); conditions: MARK4 FRET-Z-Lyte SP; Test Conc(μM):ATP Conc(μM) 1:10
kinases [25] = target: kinases (Homo sapiens, UniProt P35916); conditions: FLT4 (VEGFR3) *Mn* Z-Lyte SP; Test Conc(μM):ATP Conc(μM) 1:5
kinases [26] = target: kinases (Homo sapiens, UniProt P43250); conditions: GRK6 FRET-Z-Lyte SP; Test Conc(μM):ATP Conc(μM) 1:10
kinases [27] = target: kinases (Homo sapiens, UniProt O14936); conditions: CASK FRET-Lantha SP; Test Conc(μM) 1
kinases [28] = target: kinases (Homo sapiens, UniProt P04626); conditions: ERBB2 (HER2) *Mn* Z-Lyte SP; Test Conc(μM):ATP Conc(μM) 1:10

Chain of kinases (Homo sapiens, UniProt Q96L34) (Q96L34 whole entry): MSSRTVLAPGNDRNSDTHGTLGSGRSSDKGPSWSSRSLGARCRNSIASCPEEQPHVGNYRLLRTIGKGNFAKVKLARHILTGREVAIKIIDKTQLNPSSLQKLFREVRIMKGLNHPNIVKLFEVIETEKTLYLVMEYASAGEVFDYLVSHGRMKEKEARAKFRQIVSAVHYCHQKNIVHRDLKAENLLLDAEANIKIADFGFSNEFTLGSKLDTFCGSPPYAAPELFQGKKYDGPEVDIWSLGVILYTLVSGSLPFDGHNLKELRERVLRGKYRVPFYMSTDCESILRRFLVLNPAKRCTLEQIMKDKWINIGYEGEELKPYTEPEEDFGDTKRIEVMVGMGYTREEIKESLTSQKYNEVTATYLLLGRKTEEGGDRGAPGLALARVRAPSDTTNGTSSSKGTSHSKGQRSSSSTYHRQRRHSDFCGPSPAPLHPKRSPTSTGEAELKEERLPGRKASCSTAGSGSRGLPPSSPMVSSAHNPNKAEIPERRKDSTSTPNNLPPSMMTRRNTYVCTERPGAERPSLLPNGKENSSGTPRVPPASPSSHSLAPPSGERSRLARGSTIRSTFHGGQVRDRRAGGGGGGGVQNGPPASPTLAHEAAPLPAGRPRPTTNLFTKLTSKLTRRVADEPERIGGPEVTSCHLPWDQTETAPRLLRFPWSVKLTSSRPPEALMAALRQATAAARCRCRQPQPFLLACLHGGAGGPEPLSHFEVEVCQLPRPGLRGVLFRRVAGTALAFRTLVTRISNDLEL
Chain of kinases (Homo sapiens, UniProt O14757) (O14757 whole entry): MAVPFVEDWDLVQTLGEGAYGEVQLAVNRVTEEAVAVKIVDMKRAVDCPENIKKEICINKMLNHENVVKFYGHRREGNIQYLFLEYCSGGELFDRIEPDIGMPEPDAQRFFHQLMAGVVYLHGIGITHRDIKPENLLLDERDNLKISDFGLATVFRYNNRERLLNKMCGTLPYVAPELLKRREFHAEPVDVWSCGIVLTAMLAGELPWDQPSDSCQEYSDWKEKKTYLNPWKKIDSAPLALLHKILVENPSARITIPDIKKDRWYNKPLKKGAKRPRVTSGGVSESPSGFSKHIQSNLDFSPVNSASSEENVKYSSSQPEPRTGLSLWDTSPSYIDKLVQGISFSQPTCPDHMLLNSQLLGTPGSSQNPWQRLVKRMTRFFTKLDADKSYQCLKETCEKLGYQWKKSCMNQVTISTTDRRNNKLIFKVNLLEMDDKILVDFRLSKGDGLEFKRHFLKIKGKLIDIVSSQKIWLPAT
Chain of kinases (Homo sapiens, UniProt Q9NY57) (Q9NY57 whole entry): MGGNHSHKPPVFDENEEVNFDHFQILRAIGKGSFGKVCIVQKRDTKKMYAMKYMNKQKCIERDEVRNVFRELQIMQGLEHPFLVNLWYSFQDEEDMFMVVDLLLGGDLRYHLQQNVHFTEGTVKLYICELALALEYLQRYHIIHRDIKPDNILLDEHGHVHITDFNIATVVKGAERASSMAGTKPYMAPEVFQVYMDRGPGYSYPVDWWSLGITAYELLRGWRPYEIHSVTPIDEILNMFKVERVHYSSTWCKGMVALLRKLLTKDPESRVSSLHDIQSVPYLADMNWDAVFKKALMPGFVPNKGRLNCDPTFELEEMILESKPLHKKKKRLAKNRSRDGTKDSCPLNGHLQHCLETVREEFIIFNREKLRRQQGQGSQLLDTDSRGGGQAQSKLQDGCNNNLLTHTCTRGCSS
Chain of kinases (Homo sapiens, UniProt P35916) (P35916 25-1363): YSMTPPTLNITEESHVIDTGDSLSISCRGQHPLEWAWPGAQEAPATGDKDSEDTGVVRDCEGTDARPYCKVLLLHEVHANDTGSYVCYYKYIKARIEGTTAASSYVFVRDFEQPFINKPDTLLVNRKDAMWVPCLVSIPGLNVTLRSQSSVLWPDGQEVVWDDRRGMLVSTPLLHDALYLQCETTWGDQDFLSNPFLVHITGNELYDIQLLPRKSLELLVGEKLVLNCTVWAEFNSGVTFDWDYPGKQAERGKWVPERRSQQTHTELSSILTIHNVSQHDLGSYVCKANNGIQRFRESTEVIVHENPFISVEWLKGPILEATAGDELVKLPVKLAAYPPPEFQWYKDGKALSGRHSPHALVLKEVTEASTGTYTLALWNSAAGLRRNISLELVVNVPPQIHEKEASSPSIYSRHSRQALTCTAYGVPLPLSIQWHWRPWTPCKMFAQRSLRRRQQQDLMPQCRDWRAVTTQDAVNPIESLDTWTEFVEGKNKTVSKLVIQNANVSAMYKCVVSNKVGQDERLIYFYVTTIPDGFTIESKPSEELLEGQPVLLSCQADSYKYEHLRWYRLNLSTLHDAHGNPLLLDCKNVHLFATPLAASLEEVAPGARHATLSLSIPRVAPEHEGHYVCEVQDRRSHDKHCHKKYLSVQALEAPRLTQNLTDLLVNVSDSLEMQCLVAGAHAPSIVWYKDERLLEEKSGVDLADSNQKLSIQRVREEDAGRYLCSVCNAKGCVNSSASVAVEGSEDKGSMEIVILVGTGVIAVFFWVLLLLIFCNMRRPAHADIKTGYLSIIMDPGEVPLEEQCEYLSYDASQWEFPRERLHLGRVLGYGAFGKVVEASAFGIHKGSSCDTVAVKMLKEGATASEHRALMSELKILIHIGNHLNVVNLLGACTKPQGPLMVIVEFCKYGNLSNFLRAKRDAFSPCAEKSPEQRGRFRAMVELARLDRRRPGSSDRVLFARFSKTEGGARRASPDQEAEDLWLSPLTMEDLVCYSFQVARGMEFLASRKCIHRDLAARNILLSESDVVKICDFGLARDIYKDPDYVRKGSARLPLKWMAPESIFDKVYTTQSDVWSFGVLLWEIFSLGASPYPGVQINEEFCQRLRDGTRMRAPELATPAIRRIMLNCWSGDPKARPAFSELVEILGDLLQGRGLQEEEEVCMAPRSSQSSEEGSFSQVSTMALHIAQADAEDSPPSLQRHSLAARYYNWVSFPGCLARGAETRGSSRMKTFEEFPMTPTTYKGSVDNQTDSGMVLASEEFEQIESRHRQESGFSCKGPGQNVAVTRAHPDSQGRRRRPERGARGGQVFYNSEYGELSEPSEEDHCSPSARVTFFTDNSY
Chain of kinases (Homo sapiens, UniProt O00141) (O00141 whole entry): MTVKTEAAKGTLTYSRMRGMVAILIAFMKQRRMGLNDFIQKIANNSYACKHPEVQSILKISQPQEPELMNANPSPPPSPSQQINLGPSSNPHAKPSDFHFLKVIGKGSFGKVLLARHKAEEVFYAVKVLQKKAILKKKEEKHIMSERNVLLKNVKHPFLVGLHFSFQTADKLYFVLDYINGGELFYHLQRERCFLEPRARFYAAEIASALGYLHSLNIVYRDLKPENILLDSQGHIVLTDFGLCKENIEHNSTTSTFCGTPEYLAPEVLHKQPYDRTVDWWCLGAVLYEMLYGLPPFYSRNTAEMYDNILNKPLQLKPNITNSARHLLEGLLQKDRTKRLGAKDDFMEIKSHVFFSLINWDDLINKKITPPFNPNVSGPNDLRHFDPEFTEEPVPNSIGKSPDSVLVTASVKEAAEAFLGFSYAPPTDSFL
Chain of kinases (Homo sapiens, UniProt Q15835) (Q15835 whole entry): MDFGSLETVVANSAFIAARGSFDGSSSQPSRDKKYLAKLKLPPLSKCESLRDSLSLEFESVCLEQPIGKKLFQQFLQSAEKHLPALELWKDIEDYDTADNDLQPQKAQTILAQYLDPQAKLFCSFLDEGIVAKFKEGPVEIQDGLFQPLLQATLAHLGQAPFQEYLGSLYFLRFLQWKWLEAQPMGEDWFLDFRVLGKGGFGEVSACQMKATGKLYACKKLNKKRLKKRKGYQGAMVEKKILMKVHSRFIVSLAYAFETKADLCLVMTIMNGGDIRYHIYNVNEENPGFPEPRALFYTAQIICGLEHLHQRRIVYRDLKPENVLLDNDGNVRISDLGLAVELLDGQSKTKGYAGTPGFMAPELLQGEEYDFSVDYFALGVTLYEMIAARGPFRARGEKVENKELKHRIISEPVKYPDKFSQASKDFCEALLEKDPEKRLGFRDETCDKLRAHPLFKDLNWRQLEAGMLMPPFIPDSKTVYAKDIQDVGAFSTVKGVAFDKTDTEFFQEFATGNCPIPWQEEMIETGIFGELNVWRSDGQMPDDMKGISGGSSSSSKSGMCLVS
Chain of kinases (Homo sapiens, UniProt O00311) (O00311 whole entry): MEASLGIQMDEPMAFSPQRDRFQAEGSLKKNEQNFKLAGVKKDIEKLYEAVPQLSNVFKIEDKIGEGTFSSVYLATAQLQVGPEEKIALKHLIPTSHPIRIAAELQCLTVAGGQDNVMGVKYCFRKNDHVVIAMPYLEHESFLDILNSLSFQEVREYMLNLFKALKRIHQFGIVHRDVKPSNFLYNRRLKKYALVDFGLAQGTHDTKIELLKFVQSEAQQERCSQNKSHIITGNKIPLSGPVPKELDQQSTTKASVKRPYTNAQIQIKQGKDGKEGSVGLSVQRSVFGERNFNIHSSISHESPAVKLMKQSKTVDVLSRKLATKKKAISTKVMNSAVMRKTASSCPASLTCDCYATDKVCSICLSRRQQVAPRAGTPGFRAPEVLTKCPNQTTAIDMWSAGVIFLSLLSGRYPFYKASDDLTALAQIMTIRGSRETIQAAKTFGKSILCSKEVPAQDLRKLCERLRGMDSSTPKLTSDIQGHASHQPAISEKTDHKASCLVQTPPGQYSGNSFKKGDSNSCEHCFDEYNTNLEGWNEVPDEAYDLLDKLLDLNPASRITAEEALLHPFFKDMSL
Chain of kinases (Homo sapiens, UniProt Q9HCP0) (Q9HCP0 whole entry): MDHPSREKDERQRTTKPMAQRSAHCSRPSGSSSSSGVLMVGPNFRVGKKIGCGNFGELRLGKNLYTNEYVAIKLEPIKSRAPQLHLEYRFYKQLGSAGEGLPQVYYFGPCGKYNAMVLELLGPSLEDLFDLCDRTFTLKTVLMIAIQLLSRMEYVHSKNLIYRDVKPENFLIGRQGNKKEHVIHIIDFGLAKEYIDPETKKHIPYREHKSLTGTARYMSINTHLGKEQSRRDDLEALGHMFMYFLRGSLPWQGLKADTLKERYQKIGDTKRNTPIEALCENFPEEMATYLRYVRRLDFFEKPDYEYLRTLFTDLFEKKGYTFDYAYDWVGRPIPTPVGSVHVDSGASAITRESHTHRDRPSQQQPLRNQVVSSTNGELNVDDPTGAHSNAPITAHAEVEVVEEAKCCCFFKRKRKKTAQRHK

SMILES | Mean Inhib (%) (kinases [1]) | Mean Inhib (%) (kinases [2]) | Mean Inhib (%) (kinases [3]) | Mean Inhib (%) (kinases [4]) | Mean Inhib (%) (kinases [5]) | Mean Inhib (%) (kinases [6]) | Mean Inhib (%) (kinases [7]) | Mean Inhib (%) (kinases [8]) | Mean Inhib (%) (kinases [9]) | Mean Inhib (%) (kinases [10]) | Mean Inhib (%) (kinases [11]) | Mean Inhib (%) (kinases [12]) | Mean Inhib (%) (kinases [13]) | Mean Inhib (%) (kinases [14]) | Mean Inhib (%) (kinases [15]) | Mean Inhib (%) (kinases [16]) | Mean Inhib (%) (kinases [17]) | Mean Inhib (%) (kinases [18]) | Mean Inhib (%) (kinases [19]) | Mean Inhib (%) (kinases [20]) | other results
Cc1cc(Oc2ccnc(Nc3ccc(S(N)(=O)=O)cc3)c2)c(-c2ccccn2)nc1C [compound 65] | −4.5 | 2.5 | 19.9 | 0.9 | −0.8 | 47.0 | −1.9 | 1.9 | 0.2 | 2.9 | 58.1 | −22.4 | 4.9 | 5.7 | 0.4 | 14.8 | 1.6 | −1.4 | 2.1 | −1.0 | Mean Inhib (%) (kinases [21]): 3.7%; Mean Inhib (%) (kinases [22]): 4.9%; Mean Inhib (%) (kinases [23]): 8.3%; Mean Inhib (%) (kinases [24]): 1.4%; Mean Inhib (%) (kinases [25]): 2.0%; Mean Inhib (%) (kinases [26]): 2.1%; Mean Inhib (%) (kinases [27]): 12.1%; Mean Inhib (%) (kinases [28]): 10.1%
Cc1ccc(NC(=O)c2ccnc(N3CCOCC3)c2)cc1Nc1ccnc(N2CC(C)OC(C)C2)n1 (centres unmarked) [compound 3] | −4.3 | 0.4 | 1.6 | 4.9 | −3.2 | 6.9 | 5.2 | −1.5 | 7.0 | 7.6 | 1.4 | 12.0 | 6.5 | 13.1 | 10.2 | 6.3 | −2.1 | −7.0 | −1.3 | 2.6 | Mean Inhib (%) (kinases [21]): −3.1%; Mean Inhib (%) (kinases [22]): 0.5%; Mean Inhib (%) (kinases [23]): 4.6%; Mean Inhib (%) (kinases [24]): 0.2%; Mean Inhib (%) (kinases [25]): 2.8%; Mean Inhib (%) (kinases [26]): 0.8%; Mean Inhib (%) (kinases [27]): 16.8%; Mean Inhib (%) (kinases [28]): 2.7%
